Assay results: the supplement of paper PMC10307832

How the values were obtained:
Experiment in all cases: relative viability (nuclei count vs DMSO), 5 days (fraction); higher = more cells survive
Irinotecan + Phenformin = compound: CCc1c2c(nc3ccc(OC(=O)N4CCC(N5CCCCC5)CC4)cc13)-c1cc3c(c(=O)n1C2)COC(=O)[C@]3(O)CC [Irinotecan] + N=C(N)NC(=N)NCCc1ccccc1 [Phenformin] (partner 250 µM)
How it was run: (§1)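 A single step with final 0.05% Triton X-100, 1% formaldehyde and 1 ug/ml Hoechst fixed the cells and stained nuclei 5 days after treatment. Lung cancer cell lines in 1536-well plates had been treated by pin tool the day after seeding with one drug alone or a fixed anchor-drug dose plus five library-drug doses (not always all listed) in √10 steps, and nuclei were counted on 4× images. Relative viability is the ratio of nuclei in treated wells to nuclei in vehicle wells, taken as the median of duplicate plates.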

RU-SKI 43 + Pictilisib = compound: CC[C@@H](C)CNCC(=O)N1CCC2=C([C@@H]1COC3=CC=CC(=C3)C)C=CS2 [RU-SKI 43] + CS(=O)(=O)N1CCN(Cc2cc3nc(-c4cccc5[nH]ncc45)nc(N4CCOCC4)c3s2)CC1 [Pictilisib] (partner 1 µM)
How it was run: as §1

MK-8033 + Crizotinib = compound: Cn1cc(-c2cnc3ccc4ccc(CS(=O)(=O)NCc5ccccn5)cc4c(=O)c3c2)cn1 [MK-8033] + C[C@@H](Oc1cc(-c2cnn(C3CCNCC3)c2)cnc1N)c1c(Cl)ccc(F)c1Cl [Crizotinib] (partner 1 µM)
How it was run: as §1

Irinotecan + Olaparib = compound: CCc1c2c(nc3ccc(OC(=O)N4CCC(N5CCCCC5)CC4)cc13)-c1cc3c(c(=O)n1C2)COC(=O)[C@]3(O)CC [Irinotecan] + O=C(c1cc(Cc2n[nH]c(=O)c3ccccc23)ccc1F)N1CCN(C(=O)C2CC2)CC1 [Olaparib] (partner 8 µM)
How it was run: as §1

Cell Line	relative viability (Irinotecan + Phenformin; first compound 2 µM)	relative viability (Irinotecan + Phenformin; first compound 6.325 µM)	relative viability (Irinotecan + Phenformin; first compound 20 µM)	relative viability (RU-SKI 43 + Pictilisib; first compound 0.1 µM)	relative viability (RU-SKI 43 + Pictilisib; first compound 0.3162 µM)	relative viability (RU-SKI 43 + Pictilisib; first compound 1 µM)	relative viability (RU-SKI 43 + Pictilisib; first compound 3.162 µM)	relative viability (RU-SKI 43 + Pictilisib; first compound 10 µM)	relative viability (MK-8033 + Crizotinib; first compound 0.02 µM)	relative viability (MK-8033 + Crizotinib; first compound 0.06325 µM)	relative viability (MK-8033 + Crizotinib; first compound 0.2 µM)	relative viability (MK-8033 + Crizotinib; first compound 0.6325 µM)	relative viability (MK-8033 + Crizotinib; first compound 2 µM)	relative viability (Irinotecan + Olaparib; first compound 0.6325 µM)	relative viability (Irinotecan + Olaparib; first compound 2 µM)	relative viability (Irinotecan + Olaparib; first compound 6.325 µM)	relative viability (Irinotecan + Olaparib; first compound 20 µM)	relative viability (Irinotecan + Phenformin; first compound 0.6325 µM)
201T	0.489	0.361	0.333	0.71	0.544	0.737	0.662	0.67	1.07	0.991	1.03	0.874	1.03	0.53	0.312	0.231	0.264	
A549	0.198	0.113	0.0897	0.511	0.742	0.594	0.439	0.384	0.719	0.713	0.703	0.848	0.677	0.073	0.186	0.0779	0.0719	
A-427	0.21	0.173	0.184	0.83	0.66	0.878		0.675	0.933	0.734	0.824	0.88	0.865	0.718	0.551	0.271	0.104	
ABC-1	0.292	0.229	0.0948	0.676	0.842	0.753	0.701	0.772	1.06	1.14	1.06	0.996	1.04		0.68	0.421	0.375	
BEN	0.247	0.24	0.272	0.642	0.546	0.791	0.528	0.584	0.895	0.763	0.838	0.89	0.773	0.681	0.53	0.425	0.528	0.242
CAL-12T	0.668	0.275	0.186	0.772	0.334	0.624	0.397	0.461	0.62	0.608	0.646	0.693	0.474	0.494	0.44	0.288	0.297	
COR-L23	0.394	0.188	0.108	0.754	0.756	0.897	0.986	0.738	0.58	0.721	0.489	0.73	0.506	0.162	0.215	0.191	0.0964	0.31
COR-L 105	0.682	0.41	0.182	0.436	0.361	0.377	0.379	0.364	0.797	0.696	0.917	0.861	0.802	0.644	0.513	0.552	0.425	0.505
Calu-6				0.918	1.14	0.977	0.912	0.722	0.831	0.77	0.704	0.828	0.695	0.258	0.326	0.225	0.128	
ChaGo-K-1	0.352	0.191	0.218	1.07	0.75	1.12	0.435	0.495	1.11	1.02	1.11	1.1	0.726	0.223	0.267	0.245	0.221	0.413
EBC-1				0.345	0.283	0.429	0.316	0.196	0.158	0.16	0.193	0.193	0.188	0.228	0.224	0.257	0.188	
EKVX	0.185	0.224	0.151	0.395	0.422	0.392	0.482	0.386	0.966	0.735	0.799	0.908	0.601		0.539	0.275	0.224	0.216
EMC-BAC-2	0.399	0.271	0.276	0.516	0.518	0.561	0.565	0.511	0.76	0.77	0.718	0.783	0.701	0.276	0.292	0.274	0.158	0.336
EPLC-272H	0.244	0.241	0.294	0.316	0.315	0.404		0.291	1.09		0.88	0.843	0.866	0.508	0.547	0.307	0.218	0.25
H3255	0.337	0.344	0.331	0.435	0.412	0.512	0.494	0.455	0.951	0.759	0.775	0.625	0.787	0.464	0.446	0.343	0.362	0.343
